Laboratory results as given in US20050069907A1, “Methods for using double-mutant RNA polymerases with reduced discrimination between non-canonical and canonical nucleoside triphosphates” (priority 2002, published 2005).

Tests used:
poly(dI)·poly(dC) = assay: Relative activity on poly(dI)·poly(dC); format: biochemical
Procedure: Transcription reactions: Transcription reactions were carried out in 40 mM Tris-Cl pH 8.0, 15 mM MgCl2, and 5 mM DTT or 20 mM Manganese Citrate pH 8.0, 5 mM DTT at 37° C. Template, polymerase, and NTP concentrations were as indicated in the legends to the figures and tables. Relative activity determinations were made by taking 4 μl aliquots of reactions at 5, 10, and 20 minute time points and spotting on to DE81 filter paper. Unincorporated nucleotides were separated from incorporated nucleotides by washing the filter paper with 0.5 M KH2PO4 pH 7.0 and retained radioactive nucleotide was quantitated with a Molecular Dynamics phosphorimager. To evaluate rNTP/dNTP selectivity, reactions were run with 4 rNTPs and pT75 as template and α-P^32 rNTPs or α-P^32 dNTPs were used to label the transcripts. The relative rate of incorporation of an rNTP vs. its cognate dNTP was determined from the relative percentages of labeled rNTP vs. dNTP incorporated into DE81 retainable RNA at 5, 10, and 20 minute time points. Apparent miscoding frequencies were determined similarly, though in this instance the template was a single-stranded homopolymer and the reaction contained the complementary unlabeled rNTP, and complementary α-P^32 rNTP or one of the 3 non-complementary α-P^32 rNTPs. The relative percentages of labeled complementary vs. non-complementary rNTPs incorporated at 5, 10 and 20 minute time points gave an apparent miscoding rate. The rNTP/dNTP selectivity assay was used to test the following T7 RNAP mutants for effects on substrate discrimination: D537S, D537E, S539A, R5S1S, D552S, R627S, K631S, L637A, Y639S, Y639F, Y639A, G640A, F644A, G645A, Q649S, […], H811S, H811A, D812A, D812E, D812S, D812N, D879E+ΔF882+ΔA883, D879E+A881T+ΔA883, D879E+F884+A885, D879E+F882Y, D879E+ΔA883, D879E+F882W, D879E.
DNA and RNA synthesis on homopolymeric templates: T7 RNAP will synthesize poly(rG) RNAs on poly(dC) templates (Bonner, et al., 1994; Ikeda and Richardson 1987). The activity of the W.T. and mutant polymerases were measured on poly(dI)-poly(dC) with rGTP, dGTP, dGTP+rGMP (see, Table III).
Numbers give mean and range from 3 experiments. Templates were at 0.2 mg/ml, polymerases at 10^-8 M. Labeling NTPs were α-P^32 rGTP, α-P^32 dGTP, α-P^32 rATP, α-P^32 dATP, as appropriate. rNTPs or rNMPs at 0.5 mM; dNTPs at 1 mM.

poly(rC) = assay: Activity on an RNA (poly(rC)) template; format: biochemical
Procedure: T7 RNAP as a reverse transcriptase or RNA replicase which initiates de novo: It has been reported that T7 RNAP can use both RNA and DNA templates (Konarska and Sharp, 1989). Therefore, it was determined if the Y639F mutant would use dNTPs when transcribing an RNA template (poly(rC), see Table IV).
Numbers give mean and range from 3 experiments. Template was at 0.2 mg/ml, polymerases at 10^−6 M. Labeling NTPs were α-P^32 rGTP, α-P^32 dGTP.

[1] = 2′,3′-dideoxy NTP preference (relative specificity kcat/Km NTP vs ddNTP); format: biochemical
Source text: Numbers reflect the relative specificity (kcat/Km) for an NTP vs. the corresponding ddNTP. Relative specificities could not be evaluated for the wild-type T7 RNAP because the ddNTPs are such poor substrates, but these relative specificities appear to be at least 150-fold.

supercoiled pT75 = assay: Transcript elongation rate in 3 rNTP + 1 dNTP reactions; format: biochemical
Procedure: Elongation rate determinations were carried out as described (Golomb and Chamberlin, 1974) with some variations (Bonner, et al., 1994).
Elongation rates of Y639F in reactions containing a single dNTP: Elongation rates for Y639F in reactions with 4 rNTPs or 1 dNTP and 3 rNTPs were determined by analyzing aliquots, taken at 10 second intervals, from transcription reactions initiated on supercoiled PT75 by adding NTPs to otherwise complete reaction mixes (FIG. 6).
The template was supercoiled pT75 at 5×10^-7 M. Y639F polymerase was used at a concentration of 10^-6 M. Reactions contained the indicated NTPs. Labeling was with α-P32-rATP (lane e) or α-P32-rGTP (other lanes). After initiation of the reactions aliquots were taken at 10 second intervals and analyzed on 1% agarose denaturing-formaldehyde gels. […] The bars indicate the positions of λ DNA markers.
When analyzed on denaturing agarose gels (FIG. 6) the heterogeneously sized transcripts from these reactions are resolved as a smear with the trailing edge of the smear corresponding to transcripts initiated at t=0 and from which the maximal transcript elongation rate can be determined (Golomb and Chamberlin, 1974; Bonner, et al., 1994). The following elongation rate reductions (relative to a ‘4 rNTP’ reaction) were obtained for reactions containing a 3 rNTPS and 1 dNTP:dATP, ˜3-fold; dUTP, ˜2-fold; dGTP ˜1.5-fold; dCTP, 1-1.5-fold. Because of its poor activity in reactions with dNTPs it was difficult to determine the corresponding elongation rate reductions for the W.T. enzyme.

[2] = test system: 12 base DNA or RNA primers hybridized to a DNA template; assay: DNA- and RNA-primed synthesis of DNA and RNA; format: biochemical
Source text: DNA- and RNA-primed synthesis of DNA and RNA: In the assays described so far de novo initiated synthesis has been examined. T7 RNAP can also extend RNA primers. Therefore, the abilities of both polymerase to carry out DNA or RNA primed synthesis of DNA and RNA (FIG. 5) were examined.
Transcription reactions contained end-labeled 12 base DNA or RNA primers of identical sequence (GGACACGGCGAA, SEQ ID NO: 4) hybridized to a DNA template ([…] TAAGTATCC, SEQ ID NO: 5). Primer-template concentration was 10^-5 M. Reactions contained the indicated polymerases (10^-7 M) and NTPs. NTP concentrations and electrophoresis as in FIG. 1.

[3] = transcripts synthesized in vivo; cited from earlier work
[4] = rGTP, mean and range from 3 experiments
[5] = .5 mM GTP, mean and range from 3 experiments

Row | Substance | Relative activity on poly(dI)·poly(dC) (poly(dI)·poly(dC); dGTP) | Relative activity on poly(dI)·poly(dC) (poly(dI)·poly(dC); dGTP + rGMP) | Relative activity on poly(dI)·poly(dC) (poly(dI)·poly(dC); [4]) | Activity on poly(rC) template (poly(rC); 1 mM GTP) | Activity on poly(rC) template (poly(rC); 1 mM dGTP + .5 mM GMP) | Activity on poly(rC) template (poly(rC); [5]) | Activity on poly(rC) (poly(rC); dGTP or dGTP+rGMP) | Relative specificity NTP vs. corresponding ddNTP [1] | Reduction of activity on poly(rC) (poly(rC); with dGTP) | Reduction of activity on poly(rC) (poly(rC); with dGTP+rGMP) | Elongation rate reduction relative to 4 rNTP reaction (supercoiled pT75; 3 rNTPs and dATP) | Elongation rate reduction relative to 4 rNTP reaction (supercoiled pT75; 3 rNTPs and dCTP) | Elongation rate reduction relative to 4 rNTP reaction (supercoiled pT75; 3 rNTPs and dGTP) | Elongation rate reduction relative to 4 rNTP reaction (supercoiled pT75; 3 rNTPs and dUTP) | Extension of DNA and RNA primers with dNTPs less efficient than with rNTPs [2] | Protein per transcript compared to transcripts synthesized by wild-type enzyme [3]
1 | W.T.: wild-type T7 RNA polymerase [reference compound] | 7.4 (5.4-12.5) | 25 (20-27) | 1000 | <.5 | <.5 | 1000 | not measurably active | at least 150 fold |  |  |  |  |  |  |  | 
2 | Y639F: T7 RNAP with wild-type tyrosine at position 639 substituted by phenylalanine | 964 (684-1257) | 1070 (816-1457) | 1000 | 62 (48-80) | 116 (90-148) | 505 (358-733) |  |  | ~8 fold | ~4 fold | ~3 fold | 1-1.5 fold | ~1.5 fold | ~2 fold | ~4 fold | ½-⅓
